≈ marks a conversion by molar mass, not a printed value. Structures can show the parent of a compound that is named as a salt. Where two headings read alike, the source gives them in different places. Values belong to the molecule of their own block, whether it stands above or below them.
Assays:
Klebsiella pneumoniae = test: Gradient Plate technique, MIC; assay type: cell-based; conditions: read-out: Minimum Inhibitory Concentration
Description: (§1) The following Table II lists the minimum inhibitory concentration (MIC) for 7-[2-(2-thienyl)acetamido]-3-chloro-3-cephem-4-carboxylic acid against penicillin resistant Staphylococcus both in the presence of and absence of serum. The MIC values were obtained by the Gradient Plate technique carried out essentially as described by Bryson and Szybalski, Science, 116, 45 (1952).
(§2) In Table III, below, the MIC values for the test compound of Tables I and II against representative gram-negative organisms is presented. The data were obtained by the Gradient Plate technique.
(§3) The minimum inhibitory concentrations for 7-[2-(2-thienyl)acetamido]-3-bromo-3-cephem-4-carboxylic acid against representative gram-negative bacteria is presented in Table VI. The data were obtained by the Gradient Plate Method.
(§4) Tables VII and VIII list the minimum inhibitory concentrations of the test compound effective against representative penicillin resistant Staphylococcus strains, while […] the MIC values obtained against representative gram-negative microorganisms. The data were obtained by the Gradient Plate method.

Shigella sp. = test: Gradient Plate technique, MIC; assay type: cell-based; conditions: read-out: Minimum Inhibitory Concentration
Description: as §1, §2, §3, §4

Pseudomonas aeruginosa = test: Gradient Plate technique, MIC; assay type: cell-based; conditions: read-out: Minimum Inhibitory Concentration
Description: as §1, §2, §3, §4

Escherichia coli = test: Gradient Plate technique, MIC; assay type: cell-based; conditions: read-out: Minimum Inhibitory Concentration
Description: as §1, §2, §3, §4

Serratia marcescens = test: Gradient Plate technique, MIC; assay type: cell-based; conditions: read-out: Minimum Inhibitory Concentration
Description: as §1, §2, §3, §4

Salmonella heidelberg = test: Gradient Plate technique, MIC; assay type: cell-based; conditions: Salmonella enterica, read-out: Minimum Inhibitory Concentration
Description: as §1, §2, §3, §4

Aerobacter aerogenes = test: Gradient Plate technique, MIC; assay type: cell-based; conditions: Klebsiella aerogenes, read-out: Minimum Inhibitory Concentration
Description: as §1, §2, §3, §4

[1] = tested on: Methicillin resistant Staphylococcus; test: Gradient Plate technique, MIC; assay type: cell-based; conditions: Clinical Isolate X400 (methicillin resistant)
[2] = tested on: Penicillin Resistant Staphylococcus; test: Gradient Plate technique, MIC; assay type: cell-based; conditions: read-out: Minimum Inhibitory Concentration
Description: as §1, with “(1952). […]” for “(1952).”

Electrometric titration = assay type: physicochemical; conditions: 66% aqueous dmf, read-out: pKa
[3] = tested on: Staphylococcus aureus 3055; test: standard agar dilution method, MIC; assay type: cell-based; conditions: read-out: Minimum Inhibitory Concentration
Description: (§5) In Table IX which follows, the MIC values against a spectrum of microorganisms obtained with the test compound are presented. The test method was the standard agar dilution method.

Ceratocystis ulmi = test: standard agar dilution method, MIC; assay type: cell-based; conditions: read-out: Minimum Inhibitory Concentration
Description: as §5

Proteus morganii PR15 = test: standard agar dilution method, MIC; assay type: cell-based; conditions: Morganella morganii, read-out: Minimum Inhibitory Concentration
Description: as §5

Serratia marcescens SE3 = test: standard agar dilution method, MIC; assay type: cell-based; conditions: read-out: Minimum Inhibitory Concentration
Description: as §5

[4] = tested on: Pseudomonas aeruginosa X239; test: standard agar dilution method, MIC; assay type: cell-based; conditions: read-out: Minimum Inhibitory Concentration
Description: as §5

Salmonella typhimurium = test: standard agar dilution method, MIC; assay type: cell-based; conditions: Salmonella enterica, read-out: Minimum Inhibitory Concentration
Description: as §5

Escherichia coli EC14 = test: standard agar dilution method, MIC; assay type: cell-based; conditions: read-out: Minimum Inhibitory Concentration
Description: as §5

[5] = tested on: Streptococcus faecalis X66; test: standard agar dilution method, MIC; assay type: cell-based; conditions: Enterococcus faecalis, read-out: Minimum Inhibitory Concentration
Description: as §5

Salmonella typhosa SA12 = test: standard agar dilution method, MIC; assay type: cell-based; conditions: Salmonella enterica, read-out: Minimum Inhibitory Concentration
Description: as §5

[6] = tested on: Staphylococcus aureus 3074; test: standard agar dilution method, MIC; assay type: cell-based; conditions: read-out: Minimum Inhibitory Concentration
Description: as §5

[7] = tested on: Enterobacter aerogenes EB17; test: standard agar dilution method, MIC; assay type: cell-based; conditions: Klebsiella aerogenes, read-out: Minimum Inhibitory Concentration
Description: as §5

[8] = tested on: Pseudomonas solanacearcum X185; test: standard agar dilution method, MIC; assay type: cell-based; conditions: read-out: Minimum Inhibitory Concentration
Description: as §5

Erwinia amylovora = test: standard agar dilution method, MIC; assay type: cell-based; conditions: read-out: Minimum Inhibitory Concentration
Description: as §5

Candida tropicalis A17 = test: standard agar dilution method, MIC; assay type: cell-based; conditions: read-out: Minimum Inhibitory Concentration
Description: as §5

[9] = tested on: Klebsiella pneumoniae KL14; test: standard agar dilution method, MIC; assay type: cell-based; conditions: read-out: Minimum Inhibitory Concentration
Description: as §5

Aspergillus flavus E = test: standard agar dilution method, MIC; assay type: cell-based; conditions: read-out: Minimum Inhibitory Concentration
Description: as §5

[10] = tested on: Bordetella bronchiseptica 16; test: standard agar dilution method, MIC; assay type: cell-based; conditions: read-out: Minimum Inhibitory Concentration
Description: as §5

Citrobacter freundii = test: standard agar dilution method, MIC; assay type: cell-based; conditions: read-out: Minimum Inhibitory Concentration
Description: as §5

[11] = tested on: Trichophyton mentagrophytes 27; test: standard agar dilution method, MIC; assay type: cell-based; conditions: read-out: Minimum Inhibitory Concentration
Description: as §5

Compound: O=CO[C@@H](C(=O)NC1C(=O)N2C(C(=O)O)=C(Cl)CSC12)c1ccccc1 (stereo partly drawn) [7-[O-(Formyl)-D-mandelamido]-3-chloro-3-cephem-4-carboxylic acid]
MIC (Klebsiella pneumoniae): 1 µg/mL (≈ 2.52 µM) | MIC (Shigella sp.): 4 µg/mL (≈ 10.1 µM) | MIC (Pseudomonas aeruginosa): > 200 µg/mL | MIC (Escherichia coli): 6.3 µg/mL (≈ 15.9 µM) | MIC (Serratia marcescens): 160 µg/mL (≈ 403 µM) | MIC (Salmonella heidelberg): 0.6 µg/mL (≈ 1.51 µM) | MIC (Aerobacter aerogenes): 0.7 µg/mL (≈ 1.76 µM) | Minimum Inhibitory Concentration ([1]; Serum): > 20 µg/mL | MIC ([1]; Staphylococcus, No Serum, read-out: Minimum Inhibitory Concentration): > 20 µg/mL | MIC ([2]; Clinical Isolate V 32, No Serum): 8 µg/mL (≈ 20.2 µM) | MIC ([2]; Clinical Isolate V 32, Serum): > 20 µg/mL | MIC ([2]; Clinical Isolate V 41, No Serum): 5.8 µg/mL (≈ 14.6 µM) | MIC ([2]; Clinical Isolate V 41, Serum): > 20 µg/mL | MIC ([2]; Clinical Isolate V 84, No Serum): 0.4 µg/mL (≈ 1.01 µM) | MIC ([2]; Clinical Isolate V 84, Serum): 1 µg/mL (≈ 2.52 µM) | MIC ([2]; Clinical Isolate X 1.1, No Serum): < 0.1 µg/mL | MIC ([2]; Clinical Isolate X 1.1, Serum): < 0.1 µg/mL | pKa (Electrometric titration; only or first pKa): 4.5 | MIC [3]: > 0.25 µg/mL | MIC (Ceratocystis ulmi): > 128 µg/mL | MIC (Proteus morganii PR15): 4 µg/mL (≈ 10.1 µM) | MIC (Serratia marcescens SE3): > 128 µg/mL | MIC [4]: 128 µg/mL (≈ 323 µM) | MIC (Salmonella typhimurium): 1 µg/mL (≈ 2.52 µM) | MIC (Escherichia coli EC14): 8 µg/mL (≈ 20.2 µM) | MIC [5]: 64 µg/mL (≈ 161 µM) | MIC (Salmonella typhosa SA12): 0.5 µg/mL (≈ 1.26 µM) | MIC [6]: 1 µg/mL (≈ 2.52 µM) | MIC [7]: 128 µg/mL (≈ 323 µM) | MIC [8]: 128 µg/mL (≈ 323 µM) | MIC (Erwinia amylovora): > 128 µg/mL | MIC (Candida tropicalis A17): > 128 µg/mL | MIC [9]: 4 µg/mL (≈ 10.1 µM) | MIC (Aspergillus flavus E): > 128 µg/mL | MIC [10]: 64 µg/mL (≈ 161 µM) | MIC (Citrobacter freundii): > 128 µg/mL | MIC [11]: > 128 µg/mL

pKa (Electrometric titration; 66% DMF, second pKa): 6.3 | pKa (Electrometric titration; only or first pKa): 4
Compound: NC1C(=O)N2C(C(=O)OCc3ccc([N+](=O)[O-])cc3)=C(O)CS[C@H]12 (stereo partly drawn) [Example 5, p-Nitrobenzyl 7-amino-3-hydroxy-3-cephem-4-carboxylate hydrochloride]

— patent US4260745A, “3-Halo cephalosporins” (Eli Lilly and Company, priority 1979, dated 1981)
